Two compounds from patent publication US20240269309A1, “CAMPTOTHECIN ANALOGUES, CONJUGATES AND METHODS OF USE” (priority 2021, published 2024) can be followed below.

Holding throughout (format): cell-based
In assay [1] the test system is Calu-3 (lung cancer). Nature of the assay: In vitro cytotoxicity of camptothecin analogues (CellTiter-Glo). The conditions noted are these: Homo sapiens, Calu-3, 96 h; 4 d incubation, growth inhibition by CellTiter-Glo; read-out: pIC50 Calu-3 (converted). Here is the method:
Cytotoxicity of the camptothecin analogues was assessed in vitro on the following cancer cell lines: SK-BR-3 (breast cancer), SKOV-3 (ovarian cancer), Calu-3 (lung cancer), ZR-75-1 (breast cancer) and MDA-MB-468 (breast cancer).
Briefly, serial dilutions of camptothecin analogues shown in Table 5.1 were prepared in RPMI 1640+10% FBS, and 20 uL of each dilution was added to 384-well plates. Cells cultured in log-phase growth were detached by brief incubation in 0.05% Trypsin and resuspended in respective culturing media at 20,000 cells/mL (with the exception of ZR-75 cells, which were resuspended at 10,000 cells/mL). 50 uL of cell suspension was then added to the plates containing test articles. Cells were incubated with test articles for 4 d at 37° C. (with the exception of ZR-75 cells, which were incubated for 5 d). Growth inhibition was assessed by CellTiter-Glo® (Promega Corporation, Madison, WI) and luminescence was measured on a Synergy™ H1 plate reader (BioTek Instruments, Winooski, VT). IC50 values were determined by GraphPad Prism (GraphPad Software, San Diego, CA).
Background: In ATP-based viability assays light output follows the ATP content of the culture.

The test system of assay [2] is T-47D (breast carcinoma) spheroids. Nature of the assay: In vitro cytotoxicity of anti-FRα ADCs, 3D spheroids. The conditions noted are these: monoculture spheroids, 6-day treatment. As to the method: (§1) The cytotoxicity capabilities of select ADCs from Example 12 were assessed in a panel of FRα-expressing cell line spheroids as described below. Cell lines used were IGROV-1 (ovarian adenocarcinoma), T-47D (breast carcinoma), OVCAR-3 (ovarian adenocarcinoma), HEC-1-A (uterine adenocarcinoma) and EBC-1 (lung carcinoma; FRα-negative).
(§2) Briefly, cells were seeded in Ultra-Low Attachment 384-well plates, centrifuged and incubated under standard culturing conditions to allow for spheroid formation and growth. Monoculture cell line spheroids were then treated with a titration of test article, generated in cell growth medium. Spheroids were incubated for 6 days under standard culturing conditions. After incubation, CellTiter-Glo® 3D reagent (Promega Corporation, Madison, WI) was spiked in all wells. Plates were incubated in the dark at room temperature for 1 hour and luminescence was quantified using a BioTek Cytation 5 Cell Imaging Multi-Mode Reader (Agilent Technologies, Inc., Santa Clara, CA). Based on blank wells (no test article added), percent cytotoxicity values were calculated and plotted against test article concentration using GraphPad Prism 9 software (GraphPad Software, San Diego, CA).

Assay [3] relates to IGROV-1 (ovarian adenocarcinoma) spheroids. The description is as above. Particulars: monoculture spheroids, 6-day treatment. Here is the method: as §1, §2
Assay [4] relates to HEC-1-A (uterine adenocarcinoma) spheroids. The description is as above. Particulars: monoculture spheroids, 6-day treatment. Here is the method:
as §1, §2

Assay [5] relates to EBC-1 (lung carcinoma; FRα-negative) spheroids. The description is as above. Particulars: monoculture spheroids, 6-day treatment. Here is the method: as §1, §2
For assay [6], the system named is OVCAR-3 (ovarian adenocarcinoma) spheroids. The assay is described as above. The conditions noted are these: monoculture spheroids, 6-day treatment. As to the method:
as §1, §2

Take `CC[C@@]1(O)C(=O)OCc2c1cc1n(c2=O)Cc2c-1nc1cc(F)c(OC)cc1c2CNC(=O)NCc1ccc(N)cc1` [Compound 135, (S)-1-(4-aminobenzyl)-3-((4-ethyl-8-fluoro-4-hydroxy-9-methoxy-3,14-dioxo-3,4,12,14-tetrahydro-1H-pyrano[3′,4′: 6,7]indolizino[1,2-b]quinolin-11-yl)methyl)urea]: in assay [1], the IC50 is 25.1 nM.
Broadly, the EC50 is the concentration needed to bring the measured effect to its halfway point. A low value points to a more potent agent. As to “v21995-MC-GGFG-DXd: "ADCs comprising the antibody palivizumab (v21995) were used as non-targeted controls"; drug-linker MC-GGFG-DXd”, the EC50 was determined as 17.8 nM in assay [2]; 16.7 nM in assay [3]; 27.6 nM in assay [4]; 24.4 nM in assay [5]; 46 nM in assay [6].
